Assay results from patent US20190091290A1, “MACROPHAGE STIMULATION IN CD47 BLOCKADE THERAPY” (TRILLIUM THERAPEUTICS INC., priority 2016, published 2019).
“Also recorded” adds a separate entry of the source.

B1: IFNγ: interferon-gamma (PeproTech), macrophage stimulating cytokine (protein, UniProt P01579 24-161, looked up)
Interferon gamma: QDPYVKEAENLKKYFNAGHSDVADNGTLFLGILKNWKEESDRKIMQSQIVSFYFKLFKNFKDDQSIQKSVETIKEDMNVKFFNSNKKKRDDFEKLTNYSVTDLNVQRKAIHELIQVMAELSPAAKTGKRKRSQMLFRG
B2: IL-10: interleukin-10 (PeproTech), macrophage stimulating cytokine (protein, UniProt P22301 19-178, looked up)
Interleukin-10: SPGQGTQSENSCTHFPGNLPNMLRDLRDAFSRVKTFFQMKDQLDNLLLKESLLEDFKGYLGCQALSEMIQFYLEEVMPQAENQDPDIKAHVNSLGENLKTLRLRLRRCHRFLPCENKSKAVEQVKNAFNKLQEKGIYKAMSEFDIFINYIEAYMTMKIRN

Experiments:
[1] = system: M0, M2a and M2b macrophages; assay: Phagocytic response to SIRPaFc after re-polarization of M0, M2a and M2b macrophages; assay type: cell-based, human; settings: overnight treatment with the agent; FIGS. 3A-3C
Text: Heparinized whole blood was obtained from normal healthy human donors (Biological Specialty Corporation) and informed consent was obtained from all donors. Peripheral blood mononuclear cells (PBMCs) were isolated over Ficoll-Paque Plus density gradient (GE Healthcare) and CD14+ monocytes were isolated from PBMCs by positive selection using CD14 antibody-coated MicroBead separation (Miltenyi Biotec). Monocytes were differentiated into macrophages by culturing for at least 10 days in X-Vivo-15 media (Lonza) supplemented with 20 ng/mL M-CSF (PeproTech). Macrophages were washed and were polarized into M0, M2a, and M2b by culturing one day with 20 ng/mL M-CSF, 20 ng/mL IL-4 (PeproTech) or 50 ug/mL heat aggregated human gamma globulin (HAGG) and 20 ng/mL IL-1β (PeproTech), respectively. One day following polarization, polarization media was washed off, and cells were treated with 20 ng/mL IFN-γ (PeproTech), 1000 U/mL IFNα2a (PBL Assay Science), 20 ng/mL IL-10 (PeproTech), 10 ug/mL Poly (I:C) (InvivoGen), 1 ug/mL LPS (MDBiosciences), 1 ug/mL R848 (InvivoGen), or 10 ug/mL ODN2395 CpG (InvivoGen) overnight. On the next day, macrophages were harvested using enzyme-free cell dissociation buffer (ThermoFisher) for flow-based phagocytosis assay. Human B cell lymphoma cell line, Toledo, was labeled with Violet Proliferation Dye 450 (BD Biosciences) and added to repolarized macrophages in a round-bottom non-tissue culture treated 96-well plate at a 1:5 effector:target ratio. […] Cells were acquired on a FACSVerse flow cytometer, and data was analyzed using FlowJo software (Treestar Inc.). Macrophages were identified as live, single, CD14+CD11b+ cells. Doublets were excluded by SSC-W and SSC-H discrimination. Phagocytosis was assessed as the % of macrophages that were VPD450+. Statistical significance was calculated by unpaired t-test vs isotype control using GraphPad Prism software.

[2] = system: CD64; assay: FcγR (CD16, CD32, CD64) expression on re-polarized M0, M2a and M2b macrophages by flow cytometry; assay type: cell-based, human; settings: overnight stimulation with the agent, FIG. 4
Text: Heparinized whole blood was obtained from normal healthy human donors (Biological Specialty Corporation) and informed consent was obtained from all donors. Peripheral blood mononuclear cells (PBMCs) were isolated over Ficoll-Paque Plus density gradient (GE Healthcare) and CD14+ monocytes were isolated from PBMCs by positive selection using CD14 antibody-coated MicroBead separation (Miltenyi Biotec). Monocytes were differentiated into macrophages by culturing for at least 10 days in X-Vivo-15 media (Lonza) supplemented with 20 ng/mL M-CSF (PeproTech). Macrophages were washed and were polarized into M0, M2a, and M2b by culturing one day with 20 ng/mL M-CSF, 20 ng/mL IL-4 (PeproTech) or 50 ug/mL heat aggregated human gamma globulin (HAGG) and 20 ng/mL IL-1β (PeproTech), respectively. One day following polarization, polarization media was washed off, and cells were treated with 20 ng/mL IFN-γ (Peprotech), 1000 U/mL IFNa2a (PBL Assay Science), 20 ng/mL IL-10 (PeproTech), 10 ug/mL Poly (I:C) (InvivoGen), 1 ug/mL LPS (MDBiosciences), 1 ug/mL R848 (InvivoGen), or 10 ug/mL ODN2395 CpG (InvivoGen) overnight. On the next day, macrophages were harvested using enzyme-free cell dissociation buffer (ThermoFisher) for analysis of CD16, CD32 and CD64 expression. Macrophages were blocked with human Fc receptor binding inhibitor (ebioscience) and were stained with Near-IR LIVE/DEAD fixable dead cell stain (Invitrogen), FITC-conjugated anti-CD16 (Clone CB16), FITC-conjugated anti-CD32 (Clone FL18.26) and V450-conjugated anti-CD64 (Clone 10.1) in three independent cocktails. Cells were washed and resuspended in stabilizing fixative (BD Biosciences), and data was acquired on a FACSVerse flow cytometry machine, and data was analyzed using FlowJo software (Treestar Inc.). Macrophages were identified as live, single cells. Doublets were excluded by SSC-W and SSC-H discrimination.

[3] = system: Human B cell lymphoma cell line, Toledo; assay: Flow-based phagocytosis assay: polarized human monocyte-derived macrophages co-cultured with Toledo tumor cells; assay type: cell-based; settings: 1 uM SIRPaFc, FIG. 1
Text: Heparinized whole blood was obtained from normal healthy human donors (Biological Specialty Corporation) and informed consent was obtained from all donors. Peripheral blood mononuclear cells (PBMCs) were isolated over Ficoll-Paque Plus density gradient (GE Healthcare) and CD14+ monocytes were isolated from PBMCs by positive selection using CD14 antibody-coated MicroBead separation (Miltenyi Biotec). Monocytes were differentiated into macrophages by culturing for at least 10 days in X-Vivo-15 media (Lonza) supplemented with 20 ng/mL M-CSF (PeproTech). One day prior to the phagocytosis assay the monocyte-derived macrophages were either left untreated in M-CSF media (M0) or treated overnight with 20 ng/mL M-CSF and 300 ng/mL interferon-gamma (IFN-γ) (PeproTech) as M1, 50 ng/mL IFN-γ and 50 ng/mL LPS (MD Biosciences) as M1+LPS, 20 ng/mL IL-4 (PeproTech) as M2a, 20 ng/mL IL-1β (PeproTech) and 50 ug/mL heat aggregated human IgG (HAGG) as M2b or 20 ng/mL IL-10 (PeproTech) and 20 ng/mL TGF (PeproTech) as M2c. […] Cells were acquired on a FACSVerse flow cytometer, and data was analyzed using FlowJo software (Treestar Inc.). […] Doublets were excluded by SSC-W and SSC-H discrimination. % Phagocytosis was assessed as the % of macrophages that were VPD450+. Statistical significance was calculated by unpaired t-test vs isotype control using GraphPad Prism software, where p***<0.001.

[4] = system: red blood cells; assay: Binding to red blood cells
[5] = target: CD47 (Homo sapiens, UniProt Q08722); assay: CD47 agonism upon binding
[6] = system: cancer cells that present with a CD47+ phenotype; settings: described in WO2014/094122; cited from earlier work

CD47, sequence (Q08722 19-323): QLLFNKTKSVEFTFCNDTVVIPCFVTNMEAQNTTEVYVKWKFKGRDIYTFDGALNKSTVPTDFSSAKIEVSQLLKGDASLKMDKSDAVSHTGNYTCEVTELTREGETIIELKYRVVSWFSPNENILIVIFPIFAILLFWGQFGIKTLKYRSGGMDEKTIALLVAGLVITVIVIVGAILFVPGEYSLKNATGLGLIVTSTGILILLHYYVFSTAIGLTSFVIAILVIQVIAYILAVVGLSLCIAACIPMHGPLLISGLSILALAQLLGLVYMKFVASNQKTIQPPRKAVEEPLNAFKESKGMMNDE

Molecule | responsiveness to SIRPaFc (phagocytosis of Toledo cells) of M0, M2a and M2b macrophages after repolarization [1] | expression of CD64 on M0, M2a and M2b macrophages after repolarization [2] | expression of CD64 on M0, M2a and M2b macrophages after repolarization ([2]; listed as IFN-alpha) | phagocytosis of DLBCL Toledo cell line by all 6 macrophage subsets ([3]; M0, M1, M1+LPS, M2a, M2b, M2c macrophages from human PBMC, vs control Fc) | SIRPαFc induced phagocytosis by M1 (+/−LPS) and M2c MDMs compared to M0, M2a and M2b subsets ([3]; Toledo cells) | binding to red blood cells [4] | CD47 agonism when binding thereto [5] | effects on the viability of CD47+ cancer cells [6]
IFNα [reference compound] | increased | increased | most striking | – | – | – | – | –
polyinosine-polycytidylic acid [Poly (I:C), reference compound] | increased | increased | – | – | – | – | – | –
SIRPaFc: human SIRPaFc comprising the V region of human SIRPa variant 2 fused to a wild type human IgG1 Fc region, SEQ ID NO: 3 | – | – | – | increased phagocytosis | superior | negligible binding | negligible CD47 agonism | dramatic effects
B1 | increased | increased | – | – | – | – | – | –
B2 | increased | increased; also recorded: most striking | – | – | – | – | – | –
